We go through three molecules from patent US20240336972A1, “METHODS FOR SELECTING MELANOMA PATIENTS FOR THERAPY AND METHODS OF REDUCING OR PREVENTING MELANOMA METASTASIS” (Oregon Health & Science University, priority 2021, published 2024).

Entries after “also recorded” stand apart in the source; their conditions may differ.

One test deals with melanoma metastasis. Conditions: mouse, in vivo; cited from earlier work.
In a further test the test system is A375 cells. Conditions: cited from earlier work.
The test system of another test is A375 melanoma cells. The test can be described thus: RNA-seq of A375 melanoma cells before and after treatment with fluvastatin. It is filed as cell-based, human. As to the method: Characterization of the transcriptome in human melanoma cells exposed to fluvastatin The effect of statins on the melanoma transcriptome was characterized using a well-established melanoma cell line. Human melanoma cell line A375 (a generous gift of Dr John Letterio, Case Western Reserve University, Cleveland, OH) were maintained in standard growth media consisting of RPMI 1640 (Thermo Fisher Scientific, Waltham, MA) b 10% fetal bovine serum p 2 mM glutamine and grown in a 5% carbon dioxide-humidified atmosphere at 37° C. Cells were tested biannually and shown to be negative for mycoplasma contamination using the Mycoplasma Detection kit (MycoAlert, Lonza, Basel, Switzerland). For gene expression studies, A375 cells were seeded at 2.5E6 per […] and allowed to adhere overnight. Test samples (in triplicate) were treated with fluvastatin (purchased from Millipore Sigma, St. […] Untreated control cells grown side by side were used as the reference control for differential expression analysis. RNA was quantified using the Qubit Broad Range RNA kit (catalog #Q10210; Thermo Fisher Scientific) and diluted to 50 ng/ml for RNA-seq.
Sequencing reads generated from the Illumina HiSeq platform (Illumina, San Diego, CA) were assessed for quality and trimmed for adapter sequences using TrimGalore!, version 0.4.2 (Babraham Bioinformatics, Cambridge, United Kingdom), a wrapper script for FastQC and cutadapt. Reads that passed quality control were subsequently aligned to the human reference genome (GRCh38) using STAR aligner, version 2.5.1. Sequence alignment was guided using the GENCODE annotation for hg38. The aligned reads were analyzed for differential expression using Cufflinks, version 2.2.1, an RNA-seq analysis package that reports the fragments per kilobase of exon per million mapped for each gene. A differential analysis report was generated using the cuffdiff command performed in a pairwise manner for each group. Differential genes were identified using a significance cutoff of q<0.05. The differential expression profiles were then used as input in iPathwayGuide (Advaita Bioinformatics, Ann Arbor, MI) for pathway analysis.

The subject of test [1] is melanocytic atypia and melanoma initiation markers. The settings on record: in vivo; cited from earlier work.
The mark [2] stands for this setting: fluvastatin 3 µM, 24 hours, vs untreated control.
Where [3] appears, read: fluvastatin 3 µM, 24 hours, vs untreated control, SkylineDx profile gene.

On to `CC(C)c1c(C(=O)Nc2ccccc2)c(-c2ccccc2)c(-c2ccc(F)cc2)n1CC[C@@H](O)C[C@@H](O)CC(=O)O` [atorvastatin, Atorvastatin], for which the metastasis result in the test with melanoma metastasis is “decreasing”. Further, the migration and invasion result with A375 cells (Matrigel transwell assay) is “decreasing”. In the test with A375 cells, the “isoprenylation of RhoC” value is on record as “decreases”.
For `CC(C)n1c(/C=C/C(O)CC(O)CC(=O)O)c(-c2ccc(F)cc2)c2ccccc21` (centres unmarked) [Fluvastatin], in the test on A375 melanoma cells, the “expression of genes included in melanoma prognostic tests (DecisionDx-Melanoma, Merlin Assay)” value is “significantly altered” and the “expression of genes used in a diagnostic test that distinguishes melanoma from nevi (myPath Melanoma)” value is listed as “did not alter; also recorded: did not affect”. Also, the “effect on the metastatic gene expression profile of melanoma” value with A375 melanoma cells (3 μM concentration for 24 hours) is “effectively reverses”. In addition, in the test with A375 melanoma cells (after fluvastatin exposure, q=0.062, not statistically significant), the SLC16A1 fold change stood at 0.797. Further, in the test on A375 melanoma cells (setting [2]), the “BUB1 Log2 Fold Change” value is recorded as −0.7319, the “CCND3 Log2 Fold Change” value is −0.7194, the “CDKN1A Log2 Fold Change” value worked out at 1.3053 and the “CDKN1C Log2 Fold Change” value worked out at 3.2643. For the same molecule, in the test on A375 melanoma cells (setting [2]), the “CUL1 Log2 Fold Change” value is listed as −0.3847, the “FGF2 Log2 Fold Change” value is listed as −0.5791, the “KIFC1 Log2 Fold Change” value is on record as −0.4213 and the “MAGEA1 Log2 Fold Change” value is listed as −0.4357. Moreover, in the test on A375 melanoma cells (setting [2]), the “MAGEA3 Log2 Fold Change” value is recorded as −0.4574, the “MAGEA4 Log2 Fold Change” value is −0.2919, the “MAGEA6 Log2 Fold Change” value is −0.4529 and the “MAGED1 Log2 Fold Change” value was determined as 0.7222. Also, in the test on A375 melanoma cells (setting [2]), the “S1PR5 Log2 Fold Change” value is −1.3212, the “SOX4 Log2 Fold Change” value is given as −0.4139 and the “TGFBRAP1 Log2 Fold Change” value is recorded as −0.3389. For the same molecule, the “AQP3 Log2 Fold Change” value in the test on A375 melanoma cells (fluvastatin 3 µM, 24 hours, vs untreated control, Castle Biosciences profile gene) is recorded as 3.2162. Also, in the test on A375 melanoma cells (fluvastatin 3 µM, 24 hours, vs untreated control, Castle Biosciences profile gene (keratin 14)), the “K14 Log2 Fold Change” value is on record as 2.8530. For the same molecule, in the test on A375 melanoma cells (setting [3]), the “CXCL8 Log2 Fold Change” value is listed as 0.8218, the “ITGB3 Log2 Fold Change” value is on record as 0.5304 and the “PLAT Log2 Fold Change” value stood at 1.7389. For the same molecule, in the test with A375 melanoma cells (significance cutoff q<0.05), the “differentially expressed genes identified” value is 2,615.
Take `CC[C@H](C)C(=O)O[C@H]1C[C@@H](C)C=C2C=C[C@H](C)[C@H](CC[C@@H]3C[C@@H](O)CC(=O)O3)[C@H]21` [lovastatin, Lovastatin]: the “melanocytic atypia or other melanoma initiation markers” value in test [1] is “did not identify any significant decreases”.
